In US9018438B2, “Screening method for anticancer drugs” (Kyoto University, priority 2010, dated 2015):
Counter-ions that a name gives are not always drawn. Like-named read-outs stand apart in the source and are kept apart here.

How the values were obtained:
[1] = tested on: pro-MMP-9; assay: Gelatin zymography of RM72 culture supernatant, MMP-9; format: cell-based, human; conditions: RM72 cells; DSF 16 μM, DXR 210 nM, Gra 32 nM, Pyt 5 μM; 48 hours
Method: Gelatin zymography with the culture supernatant of RM72 cells treated with DSF, DXR, Gra, Pyt, pDTC, HPM, and DMSO (vehicle) was performed. Specifically, RM72 cells (2×10^4 cells per well) seeded onto 96-well plates were incubated for 24 hours, and the medium was replaced with a medium containing each of the above compounds (DSF: 16 μM, DXR: 210 nM, Gra: 32 nM, Pyt: 5 μM, HPM: 1 μg/ml, pDTC: 20 μM). After incubated for 48 hours, the medium was replaced with 100 μl of DMEM containing 0.1% FBS and incubated for additional 12 hours. The culture supernatant was harvested, cleared of a solid matter by centrifugation, and analyzed by gelatin zymography in accordance with the method described in literature (Takahashi C, Sheng Z, Horan. T P, Kitayama H, Maki M, Hitomi K, Kitaura Y, Takai S, Sasahara R M, Horimoto A, Ikawa Y, Ratzkin B J, Arakawa T, Noda M. Regulation of matrix metalloproteinase-9 and inhibition of tumor invasion by the membrane-anchored glycoprotein RECK. Proc Natl Acad Sci USA 1998; 95: 13221-13226). The band intensities were normalized against the cell number determined by the SF assay.

[2] = tested on: Reck gene promoter; assay: SEAP assay in YM3 cells (Reck gene promoter-reporter system); format: cell-based, mouse; conditions: for Activity in Dox: in the presence of Dox (HRAS12V-off); for Induction (fold): relative SEAP activity at optimal conc., YM3 cells, regular medium (Ras-ON)
Method: A 4.1-kb upstream region of a mouse Reck gene (Gene ID: 53614, Chromosome 4—NC—000070.5 43884251-43888453) was inserted into a pSEAP2-Basic vector (Clontech) to give a pSEAP-RP4.1 plasmid. […] Biochem Biophys Res Commun 1999; 264: 668-675.). […] TF323-C3 cells can be distributed from one of the inventors Makoto Noda.
YM3 cells were seeded onto 96-well plates at 1×10^4 cells in 100 μl per well and incubation was performed for 5 hours to allow the cells to settle. A compound solution (500 μM, 1 μl) was added to the medium. The employed test compounds were those in the chemical library Prestwick Chemical Library (Prestwick Chemical, Illkirch, France), which is composed of 880 structurally diverse known bioactive compounds, dissolved in nano-pure grade dimethyl sulfoxide (DMSO; Wako). […] A vehicle (DMSO, 1 μl) alone as a negative control and hypothemycin (HPM, 1 mg/ml) as a positive control were added to two wells per plate. Each sample was tested on two different plates (duplicate samples).
After incubation for 48 hours, a portion (10 μl) of the culture supernatant was sampled, incubated at 65° C. (heat treatment) for 30 minutes, and then subjected to the SEAP assay using Great EscAPe™ SEAP Chemiluminescence Detection Kit (Takara Bio). The remaining medium and the cells were subjected to the cell-counting assay using SF reagent. That is, SF reagent (Nacalai) (10 μl per well) was added to the medium, the plates were incubated for 3 hours in a CO2 incubator, and the absorbance at 450 nm (A450) was measured to obtain relative cell numbers. For the SEAP activity data, “SEAP measured value/A450 value” was defined as “SEAP activity per cell”, and the value obtained by dividing “SEAP activity per cell” of each compound by “SEAP activity per cell” of the negative control was defined as “relative SEAP activity”. The mean “relative SEAP activity” of the duplicate samples and the standard error thereof were determined. For the cell number data, the value obtained by dividing the SF measured value of each compound by the SF measured value of the negative control was defined as “relative cell number”, and the mean value of the duplicate samples and the standard error thereof were determined. Samples with a large standard error were tested again. In the experiment, duplicate samples were prepared each in a regular liquid medium and in a liquid medium containing Dox (2 μg/ml), and four mean values (the relative cell number and the relative SEAP activity in the Ras-ON state and the relative cell number and the relative SEAP activity in the Ras-OFF state) were obtained (see FIG. 3).

[3] = tested on: RM72 cells; format: in vivo; conditions: for Lung metastasis Mean: relative lung metastasis; for Lung metastasis Mean / Tumor Mean: vehicle = 100; for Tumor Mean: relative tumor size; for anticancer activity / cancer metastasis suppressing activity: summary statement
Method: RM72 cells (3×10^6 cells) suspended in 0.1 ml of PBS were subcutaneously injected into the right posterior flank of Balb/c nude mice (6 weeks old, male, Charles River). […]. After 14-day treatment, the mice were anesthetized and their bioluminescence was recorded by the method described below. After the whole-body recording of the bioluminescence, the lung was resected, washed with PBS (−), and subjected to bioluminescence recording. The tumor size (length×width×height) was measured once a week. Statistical significance was assessed by Student's t-test.
Mice under anesthesia were intraperitoneally injected with 75 mg/kg of d-luciferin dissolved in PBS (−). Bioluminescence images were acquired with IVIS ImagingSystem (Xenogen) at 5 minutes after the injection (Wang S, El-Deiry W S. Requirement of p53 targets in chemosensitization of colonic carcinoma to death ligand therapy. Proc Natl Acad Sci USA 2003; 100: 15095-15100; Minn A J, Kang Y, Serganova I, Gupta G P, Giri D D, Doubrovin M, Ponomarev V, Gerald W L, Blasberg R, Massague J. Distinct organ-specific metastatic potential of individual breast cancer cells and primary tumors. J Clin Invest 2005; 115: 44-55). The photons emitted from the whole bodies or the isolated organs were collected for a period of 60 seconds and integrated. The images were analyzed using Living Image software (Xenogen).
The anti-tumorigenic and anti-metastatic activities of Pyt, Hr, Gra and Lyc were investigated with the same protocol as in Example 9. The experiment was conducted in two batches: Experiment 1 for three groups of a Pyt group, a Hr group and a vehicle group and Experiment 2 for three groups of a Gra group, a Lyc group and a vehicle group. The doses of the test compounds were set at two different quantities considered to be appropriate based on literature (see Tables 3 and 4).

[4] = tested on: endogenous RECK; assay: Endogenous RECK mRNA (RT-PCR) and protein (immunoblotting) expression in RM72 cells; format: cell-based, human; conditions: 48 hours, Lyc 1.3 μM, Hr 11 μM
Source text: Relative band intensities were obtained by normalization against HPRT1 for the mRNA and against GAPDH for the protein and subsequent division by the normalized value for the cells treated with the vehicle.

[5] = tested on: RM72 cells; assay: IC30 concentration in RM72 cells; format: cell-based, human
[6] = tested on: Reck gene promoter; assay: SEAP assay in YM3 cells (Reck gene promoter-reporter system); format: cell-based, mouse; conditions: determined by dose-response assays (0.0617, 0.185, 0.556, 1.67, 5.00 μM) using YM3 cells

| Molecule | pro-MMP-9 level in the culture supernatant [1] | Activity in Dox [2] | Induction (fold) [2] | anti-metastatic activity ([3]; both doses) | anti-tumorigenic activity ([3]; both doses) | anticancer activity [3] | cancer metastasis suppressing activity [3] | expression of RECK mRNA [4] | expression of RECK protein [4] | IC30 [5] | Optimal conc. [6] | also measured |
| --- | --- | --- | --- | --- | --- | --- | --- | --- | --- | --- | --- | --- |
| COc1cccc2c1C(=O)c1c(O)c3c(c(O)c1C2=O)C[C@@](O)(C(=O)CO)C[C@@H]3O[C@H]1C[C@H](N)[C@H](O)[C@H](C)O1 [Doxorubicin hydrochloride] | reduced | + (more than 1.9-fold) | 8.55 fold |  |  |  |  |  |  |  |  |  |
| COc1ccc2c(c1)[nH]c1c(C)nccc12.Cl [Harmine hydrochloride] |  | ± (between 1.9 and 1.5-fold) | 2.44 fold | strong | strong | confirmed | confirmed | increased the expression | increased the expression | 11 µM |  | Lung metastasis Mean ([3]; 3 mg/kg/day): 22.0; Lung metastasis Mean ([3]; 10 mg/kg/day): 25.7; Tumor Mean ([3]; 3 mg/kg/day): 56.4; Tumor Mean ([3]; 10 mg/kg/day): 47.2 |
| Cl.O[C@H]1[C@H]2c3cc4c(cc3CN3CCC(=C[C@@H]1O)[C@H]23)OCO4 [Lycorine hydrochloride] |  | + (more than 1.9-fold) | 3.44 fold |  | strong | confirmed | confirmed | increased the expression | reduced the expression | 1.3 µM | 5.00 µM | anti-metastatic activity ([3]; high dose): strong; anti-metastatic activity ([3]; low dose): weak; Lung metastasis Mean ([3]; 2.5 mg/kg/day): 65.5; Lung metastasis Mean ([3]; 7.5 mg/kg/day): 17.7; Tumor Mean ([3]; 2.5 mg/kg/day): 69.7; Tumor Mean ([3]; 7.5 mg/kg/day): 70.9 |
| Gramicidin | reduced | + (more than 1.9-fold) | 7.30 fold | strong | weak | confirmed | confirmed |  |  |  |  | Lung metastasis Mean ([3]; 0.03 mg/kg/day): 42.0; Lung metastasis Mean ([3]; 0.1 mg/kg/day): 27.4; Tumor Mean ([3]; 0.03 mg/kg/day): 89.3; Tumor Mean ([3]; 0.1 mg/kg/day): 83.1; Optimal conc. [2]: 5.00 µM |
| Meclocycline sulfosalicylate |  | − (less than 1.5-fold) | 2.59 fold |  |  |  |  |  |  |  | 0.0617 µM |  |
| Trimeprazine tartrate |  | − (less than 1.5-fold) | 2.30 fold |  |  |  |  |  |  |  | 5.00 µM |  |
